Values quoted from earlier work, collected in US20140072530A1, “TREATMENT OF HIV” (priority 2006, published 2014).

Tests used:
[1] = system: whole blood samples stimulated with LPS; conditions: LPS-stimulated whole blood of HIV patients; concentration-dependent
[2] = system: normal peripheral blood mononuclear cells (PBMC); conditions: induced by HIV envelope glycoprotein gp 120, normal PBMC

For “α-melanocyte-stimulating hormone [α-MSH (1-13), α-melanocyte-stimulating hormone [α-MSH (1-13)]]”, the “production of IL-1” value [1] is listed as “reduced”, the “production of TNF-α” value [1] is listed as “reduced” and the “production of IL-1β” value [2] is listed as “inhibit”. The “production of TNF-α” value [2] was “inhibit”.
For “adrenocorticotropic hormone [ACTH (1-39] (SYSMEHFRWGKPVGKKRRPVKVYPNGAEDESAEAFPLEF; Corticotropin; UniProt P01189 138-176, looked up) [ACTH (1-39), Proopiomelanocortin-derived melanocortin peptide]”, the “production of IL-1” value [1] is given as “reduced” and the “production of TNF-α” value [1] is given as “reduced”.
In the case of “ACTH (1-24): Melanocortin peptide, fragment 1-24 of adrenocorticotropic hormone (SYSMEHFRWGKPVGKKRRPVKVYP; Corticotropin; UniProt P01189 138-161, looked up, fragment)”, the “production of IL-1” value [1] is given as “reduced” and the “production of TNF-α” value [1] is given as “reduced”.
